Measured values published in US10793576B2, “Compound used as Bruton's tyrosine kinase inhibitor and preparation method and application thereof” (Chengdu Brilliant Pharmaceutical Co., LTD., priority 2017, dated 2020).

Key:
[1] = target: BTK kinase (Homo sapiens (Human), UniProt Q06187); assay: In vitro assay for the inhibition of BTK kinase activity (Mobility-Shift Assay); assay type: biochemical
From the text: Mobility-Shift Assay, which is microfluidic chip technology, applies the basic concept of capillary electrophoresis to microfluidic environments. The substrate used for the experiment is a polypeptide with a fluorescent label. Under the action of enzyme in the reaction system, the substrate is transformed into a product, and the charge the substrate carries also changes accordingly. The use of the charge difference between the substrate and the product involved in Mobility-Shift Assay achieves the separating of the two, and they are tested respectively. The test results are expressed by conversion rates.
(3) 100% DMSO was added to the positive control well and the negative control well, respectively;

[2] = system: DOHH2 cells; assay: Cell proliferation inhibition in vitro, DOHH2 cells by CTG assay; assay type: cell-based; details: Homo sapiens, DOHH-2, 72 hours, read-out: Inhibitions of cell activities IC50 (nM) DOHH2
Description: (§1) Test Example 2: Determination of the Inhibition of Cell Proliferation Inhibitory Activity in
(§2) vitro of compounds using different cell lines
(§3) 2: Preparation of the Compounds:
(§4) The compounds to be tested were diluted with DMSO to prepare a mother liquor at a final concentration of 10 mM for later use.
3.2 Test of DOHH2 Cells by CTG Assay
(§5) Logarithmic growth phase cells were collected, counted and resuspended in complete medium. The cell concentration was adjusted to a suitable concentration (determined according to the cell density optimization test results), and seeded to 96-well plate and 100 μl of the cell suspension was added to each well. The cells were incubated in an incubator at 37° C., 100% relative humidity and 5% C02 for 24 hours.
The compounds to be tested were diluted with the medium to the set corresponding action concentration, and the cells were added at 10 µl/well. The cells were incubated in an incubator set at 37° C., 100% relative humidity and 5% C02 for 72 hours.
The medium was aspirated and discarded, and 30 μl of test reagent was added. The plate was gentle shaken away from the light to lyse the cells.
(§6) As: OA of the sample (cell+test reagent+test compound)
(§7) Ac: OA of the negative control (cell+test reagent+DMSO)
(§8) Ab: OA of the positive control (medium+test reagent+DMSO)
(§9) IC50 curve fitting was performed using the software Graphpad Prism 5 or XLfit and IC50 values were calculated.

[3] = system: TMD8 cells; assay: Cell proliferation inhibition in vitro, TMD8 cells by CCK-8 method; assay type: cell-based; details: Homo sapiens, 72 hours, read-out: Inhibitions of cell activities IC50 (nM) TMD8
Description: as §1, §2, §3, §4
(§10) 3.1. Test of TMD8 and OCI-ly10 Cells by CCK-8 Method
as §5
(§11) The compounds to be tested were diluted with the medium to the set corresponding action concentration, and the cells were added at 25 µl/well. The cells were incubated in an incubator at 37° C., 100% relative humidity and 5% C02 for 72 hours.
(§12) The medium was aspirated and discarded, and a complete medium containing 10% of the test reagent was added and the obtained system was incubated in a 37° C. incubator for 1 hour-4 hours.
as §6, §7, §8, §9

[4] = system: OCI-LY10 cells; assay: Cell proliferation inhibition in vitro, OCI-ly10 cells by CCK-8 method; assay type: cell-based; details: Homo sapiens, 72 hours, read-out: Inhibitions of cell activities IC50 (nM) OCI-LY10
Description: as §1, §2, §3, §4, §10, §5, §11, §12, §6, §7, §8, §9

Chain of BTK kinase (Q06187 whole entry): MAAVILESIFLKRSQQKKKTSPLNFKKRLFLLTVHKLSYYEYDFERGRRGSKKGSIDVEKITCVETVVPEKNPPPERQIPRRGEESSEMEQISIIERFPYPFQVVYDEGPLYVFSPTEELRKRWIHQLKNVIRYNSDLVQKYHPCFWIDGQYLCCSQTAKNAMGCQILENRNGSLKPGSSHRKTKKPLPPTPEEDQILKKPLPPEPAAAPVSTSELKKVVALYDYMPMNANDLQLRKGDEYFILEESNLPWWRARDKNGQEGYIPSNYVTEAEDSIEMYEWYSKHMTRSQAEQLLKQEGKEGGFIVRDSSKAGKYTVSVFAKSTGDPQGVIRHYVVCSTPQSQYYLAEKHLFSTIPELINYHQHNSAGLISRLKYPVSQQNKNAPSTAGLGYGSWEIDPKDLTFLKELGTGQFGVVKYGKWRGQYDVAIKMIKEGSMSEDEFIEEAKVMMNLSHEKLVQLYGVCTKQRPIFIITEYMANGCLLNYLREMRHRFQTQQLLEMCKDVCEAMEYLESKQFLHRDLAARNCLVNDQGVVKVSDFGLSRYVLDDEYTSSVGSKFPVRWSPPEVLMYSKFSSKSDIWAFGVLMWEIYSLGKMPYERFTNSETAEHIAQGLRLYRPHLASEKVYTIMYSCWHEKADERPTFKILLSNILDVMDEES

SMILES	IC50 [1]	IC50 [2]	IC50 [3]	IC50 [4]
CC#CC(=O)N1CC2(CC2)C[C@H]1c1nc(-c2ccc(C(C)(O)c3ccccc3)cc2)c2c(N)nccn12 (stereo partly drawn) [Example 73, 1-((6S)-6-(8-amino-1-(4-(1-hydroxy-1-phenylethyl)phenyl)imidazo[1,5-a]pyrazin-3-yl)-5-azaspiro[2.4]heptan-5-yl)but-2-yn-1-one]	18 nM	124 nM	42.3 nM	1.4 nM
CC#CC(=O)N1C2CN[C@@H](C2)C1c1nc(-c2ccc(C(=O)Nc3ccccn3)cc2)c2c(N)nccn12 (some centres unmarked) [Example 14]	12.5 nM	> 1000 nM	7.5 nM	1.8 nM
C=CC(=O)N1C2C[C@@H](C1c1nc(-c3ccc(Oc4ccccc4)cc3)c3c(N)nccn13)N(C)C2 (some centres unmarked) [Example 108]	72 nM	> 1000 nM	14.3 nM	2.7 nM
C=CC(=O)N1C2CC[C@@H](C2)C1c1nc(-c2ccc(C(=O)Nc3cc(C(F)(F)F)ccn3)cc2)c2c(N)nccn12 (some centres unmarked) [Example 46]	4.2 nM	94.3 nM	3.4 nM	0.37 nM
CC#CC(=O)N1C2CCC1(c1nc(-c3ccc(C(C)(O)c4ccccc4)cc3)c3c(N)nccn13)COC2 (centres unmarked) [Example 85]	9.4 nM	96 nM	18.2 nM	0.97 nM
C=CC(=O)N1C2C[C@@H](C1c1nc(-c3ccc(C(=O)Nc4cc(C(F)(F)F)ccn4)cc3)c3c(N)nccn13)N(C(C)C)C2 (some centres unmarked) [Example 55]	2.3 nM	97 nM	0.48 nM	1.87 nM
CC#CC(=O)N1C[C@H]2[C@@H]([C@H]1c1nc(-c3ccc(C(=O)Nc4ccccn4)cc3)c3c(N)nccn13)C2(C)C [Example 6]	9.1 nM	> 1000 nM	5.4 nM	0.21 nM
C=CC(=O)N1C2C[C@@H](C1c1nc(-c3ccc(C(=O)Nc4cc(C(F)(F)F)ccn4)cc3)c3c(N)nccn13)N(C)C2 (some centres unmarked) [Example 54]	1.5 nM	143 nM	0.15 nM	0.64 nM
CC#CC(=O)N1C[C@H]2[C@@H](C1c1nc(-c3ccc(C(=O)Nc4cc(C(F)(F)F)ccn4)cc3)c3c(N)nccn13)C2(C)C (some centres unmarked) [Example 45]	17 nM	285 nM	6.4 nM	1.1 nM
CC#CC(=O)N1CC2CC1(c1nc(-c3ccc(C(=O)Nc4ccccn4)cc3)c3c(N)nccn13)CO2 (centres unmarked) [Example 10]	72 nM	> 1000 nM	6.3 nM	2.1 nM
C=CC(=O)N1CC2CCC1(c1nc(-c3ccc(C(=O)Nc4ccccn4)cc3)c3c(N)nccn13)CC2 [Example 120, 4-(3-(2-acryloyl-2-azabicyclo[2.2.2]octan-1-yl)-8-aminoimidazo[1,5-a]pyrazin-1-yl)-N-(pyridin-2-yl)benzamide]	24 nM	921 nM	6.4 nM	4.1 nM
C=CC(=O)N1C2CCC1(c1nc(-c3ccc(C(C)(O)c4ccccc4)cc3)c3c(N)nccn13)COC2 (centres unmarked) [Example 84]	16.3 nM	48 nM	6.8 nM	4.2 nM
C=CC(=O)N1C2C[C@@H](C1c1nc(-c3ccc(C(=O)Nc4ccccn4)cc3)c3c(N)nccn13)N(C(C)C)C2 (some centres unmarked) [Example 16]	9.5 nM	> 1000 nM	1.6 nM	3.1 nM
C=CC(=O)N1C2C[C@@H](C1c1nc(-c3ccc(Oc4ccccc4)cc3)c3c(N)nccn13)N(C(C)=O)C2 (some centres unmarked) [Example 110]	36 nM	198 nM	1.2 nM	0.21 nM
